Test results reported in patent US9175003B2, “Substituted azoanthracene derivatives and intermediates for preparation thereof” (TransTech Pharma, LLC, priority 2009, dated 2015).

Molecular target: human GLP-1 receptor (Homo sapiens (Human), UniProt P43220)
Details: read-out: Mean EC50; cAMP, HTRF detection, 30 min at 37° C., HEK-293 cells expressing cloned human GLP-1 receptor
Experimental: Following overnight incubation of cells, media was removed, and compounds (at concentrations ranging from 0.0001 to 100 μM) were added to monolayer cells in Iscove's modified dulbecco's medium (IMDM), 100 μM RO 20-1724 PDE inhibitor, 0.1% BSA, 2% DMSO in a final volume of 100 μL, and incubated for 30 min at 37° C. […] Alternatively, cells were harvested and combined with compounds in suspension using the buffer and protocol described above. cAMP was quantified using a homogenous time-resolved fluorescence detection system (cAMP dynamic, CIS bio International).

Sequence of human GLP-1 receptor (P43220 24-463): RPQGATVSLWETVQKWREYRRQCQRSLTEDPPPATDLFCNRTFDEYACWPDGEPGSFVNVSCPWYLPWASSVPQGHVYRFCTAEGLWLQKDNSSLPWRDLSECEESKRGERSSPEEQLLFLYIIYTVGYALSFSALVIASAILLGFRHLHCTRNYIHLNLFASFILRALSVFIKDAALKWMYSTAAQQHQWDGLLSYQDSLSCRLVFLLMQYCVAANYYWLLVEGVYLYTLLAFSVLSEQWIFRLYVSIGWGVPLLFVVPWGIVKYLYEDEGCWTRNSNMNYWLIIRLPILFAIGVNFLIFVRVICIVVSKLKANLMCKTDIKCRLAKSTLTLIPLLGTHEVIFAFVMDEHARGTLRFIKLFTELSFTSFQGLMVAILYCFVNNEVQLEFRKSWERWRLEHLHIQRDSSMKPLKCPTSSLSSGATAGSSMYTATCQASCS

SMILES	EC50 [nM]
Cc1nccc(-c2ccc(C[C@H](NC(=O)[C@@H]3Cc4cc5c(cc4CN3C(=O)NC3(C)CCC3)O[C@@H](c3ccc(OCc4ccc(Cl)c(Cl)c4)cc3)CO5)C(=O)O)cc2)c1C [Example 320, (S)-2-{[(3S,8S)-3-[4-(3,4-Dichloro-benzyloxy)-phenyl]-7-(1-methyl-cyclobutylcarbamoyl)-2,3,6,7,8,9-hexahydro-[1,4]dioxino[2,3-g]isoquinoline-8-carbonyl]-amino}-3-[4-(2,3-dimethyl-pyridin-4-yl)-phenyl]-propionic acid]	45
Cc1nccc(-c2ccc(C[C@H](NC(=O)[C@@H]3Cc4cc5c(cc4CN3C(=O)N[C@H](C)c3ccccc3)O[C@@H](c3ccc(OCc4ccc(Cl)c(Cl)c4)cc3)CO5)C(=O)O)cc2)c1C [Example 240, (S)-2-{[(3S,8S)-3-[4-(3,4-Dichloro-benzyloxy)-phenyl]-7-((R)-1-phenyl-ethylcarbamoyl)-2,3,6,7,8,9-hexahydro-[1,4]dioxino[2,3-g]isoquinoline-8-carbonyl]-amino}-3-[4-(2,3-dimethyl-pyridin-4-yl)-phenyl]-propionic acid]	56
Cc1nccc(-c2ccc(C[C@H](NC(=O)[C@@H]3Cc4cc5c(cc4CN3C(=O)N[C@H](C)c3ccccc3)O[C@@H](c3ccc(OCCc4ccc(Cl)c(Cl)c4)cc3)CO5)C(=O)O)cc2)c1C [Example 396, (S)-2-{[(3S,8S)-3-{4-[2-(3,4-Dichloro-phenyl)-ethoxy]-phenyl}-7-((R)-1-phenyl-ethylcarbamoyl)-2,3,6,7,8,9-hexahydro-[1,4]dioxino[2,3-g]isoquinoline-8-carbonyl]-amino}-3-[4-(2,3-dimethyl-pyridin-4-yl)-phenyl]-propionic acid]	156
Cc1nc(C(=O)N2Cc3cc4c(cc3C[C@H]2C(=O)N[C@@H](Cc2ccc(-c3ccnc(C)c3C)cc2)C(=O)O)OC[C@H](c2ccc(OCc3cccc(Cl)c3Cl)cc2)O4)c(C)o1 [Example 361, (S)-2-{[(3S,8S)-3-[4-(2,3-Dichloro-benzyloxy)-phenyl]-7-(2,5-dimethyl-oxazole-4-carbonyl)-2,3,6,7,8,9-hexahydro-[1,4]dioxino[2,3-g]isoquinoline-8-carbonyl]-amino}-3-[4-(2,3-dimethyl-pyridin-4-yl)phenyl]-propionic acid]	89
CC[C@@H](c1ccccc1)N1Cc2cc3c(cc2C[C@H]1C(=O)N[C@@H](Cc1ccc(-c2ccnc(C)c2C)cc1)C(=O)O)OC[C@H](c1ccc(OCc2ccc(Cl)cc2)cc1)O3 [Example 148, (S)-2-{[(3S,8S)-3-[4-(4-Chloro-benzyloxy)-phenyl]-7-((S)-1-phenyl-propyl)-2,3,6,7,8,9-hexahydro-[1,4]dioxino[2,3-g]isoquinoline-8-carbonyl]-amino}-3-[4-(2,3-dimethyl-pyridin-4-yl)-phenyl]-propionic acid]	13
Cc1nccc(-c2ccc(C[C@H](NC(=O)[C@@H]3Cc4cc5c(cc4CN3C(=O)c3ccccc3)O[C@@H](c3ccc(OCc4ccc(Cl)c(Cl)c4)cc3)CO5)C(=O)O)cc2)c1C [Example 159, (S)-2-({(3S,8S)-7-Benzoyl-3-[4-(3,4-dichloro-benzyloxy)-phenyl]-2,3,6,7,8,9-hexahydro-[1,4]dioxino[2,3-g]isoquinoline-8-carbonyl}-amino)-3-[4-(2,3-dimethyl-pyridin-4-yl)-phenyl]-propionic acid]	19
CNc1nc(C)c(S(=O)(=O)N2Cc3cc4c(cc3C[C@H]2C(=O)N[C@@H](Cc2ccc(-c3ccc(C#N)cc3)cc2)C(=O)O)OC[C@@H](c2ccc(OCc3ccc(Cl)c(Cl)c3)cc2)O4)s1 [Example 61, (S)-3-(4′-Cyano-biphenyl-4-yl)-2-{[(3R,8S)-3-[4-(3,4-dichloro-benzyloxy)-phenyl]-7-(4-methyl-2-methylamino-thiazole-5-sulfonyl)-2,3,6,7,8,9-hexahydro-[1,4]dioxino[2,3-g]isoquinoline-8-carbonyl]-amino}-propionic acid]	73
Cc1nc(N)sc1C(=O)N1Cc2cc3c(cc2C[C@H]1C(=O)N[C@@H](Cc1ccc(-c2ccc(C#N)cc2)cc1)C(=O)O)OCC(c1ccc(OCc2ccc(Cl)c(Cl)c2)cc1)O3 (stereo in doubt) [Example 126, (S)-2-({(S)-7-(2-Amino-4-methyl-thiazole-5-carbonyl)-3-[4-(3,4-dichloro-benzyloxy)-phenyl]-2,3,6,7,8,9-hexahydro-[1,4]dioxino[2,3-g]isoquinoline-8-carbonyl}-amino)-3-(4′-cyano-biphenyl-4-yl)-propionic acid]	312
Cc1nccc(-c2ccc(C[C@H](NC(=O)[C@@H]3Cc4cc5c(cc4CN3C(=O)C3CCCC3)O[C@@H](c3ccc(OCc4ccc(Cl)c(Cl)c4)cc3)CO5)C(=O)O)cc2)c1C [Example 154, (S)-2-({(3S,8S)-7-Cyclopentanecarbonyl-3-[4-(3,4-dichloro-benzyloxy)-phenyl]-2,3,6,7,8,9-hexahydro-[1,4]dioxino[2,3-g]isoquinoline-8-carbonyl}-amino)-3-[4-(2,3-dimethyl-pyridin-4-yl)-phenyl]-propionic acid]	108

Further lines, results first:

EC50 [nM]	SMILES
34	CC[C@@H](c1ccccc1)N1Cc2cc3c(cc2C[C@H]1C(=O)N[C@@H](Cc1ccc(-c2ccnc(CF)c2)cc1)C(=O)O)OC[C@H](c1ccc(OCc2ccc(Cl)c(Cl)c2)cc1)O3 [Example 212, (S)-2-{[(3S,8S)-3-[4-(3,4-Dichloro-benzyloxy)-phenyl]-7-((S)-1-phenyl-propyl)-2,3,6,7,8,9-hexahydro-[1,4]dioxino[2,3-g]isoquinoline-8-carbonyl]-amino}-3-[4-(2-fluoromethyl-pyridin-4-yl)-phenyl]-propionic acid]
66	Cc1nccc(-c2ccc(C[C@H](NC(=O)[C@@H]3Cc4cc5c(cc4CN3C(=O)c3nc[nH]n3)O[C@@H](c3ccc(OCc4ccc(Cl)c(Cl)c4)cc3)CO5)C(=O)O)cc2)c1C [Example 332, (S)-2-{[(3S,8S)-3-[4-(3,4-Dichloro-benzyloxy)-phenyl]-7-(1H-[1,2,4]triazole-3-carbonyl)-2,3,6,7,8,9-hexahydro-[1,4]dioxino[2,3-g]isoquinoline-8-carbonyl]-amino}-3-[4-(2,3-dimethyl-pyridin-4-yl)-phenyl]-propionic acid]
19	Cc1nc(C(=O)N2Cc3cc4c(cc3C[C@H]2C(=O)N[C@@H](Cc2ccc(-c3ccnc(C)c3C)cc2)C(=O)O)OC[C@H](c2ccc(OCc3cc(F)cc(F)c3)cc2)O4)c(C)o1 [Example 357, (S)-2-{[(3S,8S)-3-[4-(3,5-Difluoro-benzyloxy)-phenyl]-7-(2,5-dimethyl-oxazole-4-carbonyl)-2,3,6,7,8,9-hexahydro-[1,4]dioxino[2,3-g]isoquinoline-8-carbonyl]-amino}-3-[4-(2,3-dimethyl-pyridin-4-yl)-phenyl]propionic acid]
95	Cc1nc(C)c(C(=O)N2Cc3cc4c(cc3C[C@H]2C(=O)N[C@@H](Cc2ccc(Oc3ccnc(C)c3C)cc2)C(=O)O)OC[C@H](c2ccc(OCc3ccc(Cl)c(Cl)c3)cc2)O4)o1 [Example 265, (S)-2-{[(3S,8S)-3-[4-(3,4-Dichloro-benzyloxy)-phenyl]-7-(2,4-dimethyl-oxazole-5-carbonyl)-2,3,6,7,8,9-hexahydro-[1,4]dioxino[2,3-g]isoquinoline-8-carbonyl]-amino}-3-[4-(2,3-dimethyl-pyridin-4-yloxy)-phenyl]-propionic acid]
126	Cc1nccc(-c2ccc(C[C@H](NC(=O)[C@@H]3Cc4cc5c(cc4CN3C(=O)c3ccn(C)n3)O[C@@H](c3ccc(OCc4ccc(Cl)c(Cl)c4)cc3)CO5)C(=O)O)cc2)c1C [Example 324, (S)-2-{[(3S,8S)-3-[4-(3,4-Dichloro-benzyloxy)-phenyl]-7-(1-methyl-1H-pyrazole-3-carbonyl)-2,3,6,7,8,9-hexahydro-[1,4]dioxino[2,3-g]isoquinoline-8-carbonyl]-amino}-3-[4-(2,3-dimethyl-pyridin-4-yl)-phenyl]-propionic acid]
36	Cc1nc(C(=O)N2Cc3cc4c(cc3C[C@H]2C(=O)N[C@@H](Cc2ccc(-c3ccnc(C)c3C)cc2)C(=O)O)OC[C@H](c2ccc(OCCc3ccc(Cl)cc3)cc2)O4)c(C)o1 [Example 371, (S)-2-{[(3S,8S)-3-{4-[2-(4-Chloro-phenyl)-ethoxy]-phenyl}-7-(2,5-dimethyl-oxazole-4-carbonyl)-2,3,6,7,8,9-hexahydro-[1,4]dioxino[2,3-g]isoquinoline-8-carbonyl]-amino}-3-[4-(2,3-dimethyl-pyridin-4-yl)-phenyl]-propionic acid]
37	Cc1nccc(-c2ccc(C[C@H](NC(=O)[C@@H]3Cc4cc5c(cc4CN3C(=O)NC3(C)CCCCC3)O[C@@H](c3ccc(OCc4ccc(Cl)c(Cl)c4)cc3)CO5)C(=O)O)cc2)c1C [Example 438, (S)-2-{[(3S,8S)-3-[4-(3,4-Dichloro-benzyloxy)-phenyl]-7-(1-methyl-cyclohexylcarbamoyl)-2,3,6,7,8,9-hexahydro-[1,4]dioxino[2,3-g]isoquinoline-8-carbonyl]-amino}-3-[4-(2,3-dimethyl-pyridin-4-yl)phenyl]-propionic acid]
39	Cc1nccc(-c2ccc(C[C@H](NC(=O)[C@@H]3Cc4cc5c(cc4CN3Cc3nccs3)O[C@@H](c3ccc(OCc4ccc(Cl)c(Cl)c4)cc3)CO5)C(=O)O)cc2)c1C [Example 231, (S)-2-({(3S,8S)-3-[4-(3,4-Dichloro-benzyloxy)-phenyl]-7-thiazol-2-ylmethyl-2,3,6,7,8,9-hexahydro-[1,4]dioxino[2,3-g]isoquinoline-8-carbonyl}-amino)-3-[4-(2,3-dimethyl-pyridin-4-yl)-phenyl]-propionic acid]
16	CC[C@@H](c1ccccc1)N1Cc2cc3c(cc2C[C@H]1C(=O)N[C@@H](Cc1ccc(Oc2ccnc(C)c2)cc1)C(=O)O)OC[C@H](c1ccc(OCc2ccc(Cl)c(Cl)c2)cc1)O3 [Example 181, (S)-2-{[(3S,8S)-3-[4-(3,4-Dichloro-benzyloxy)-phenyl]-7-((S)-1-phenyl-propyl)-2,3,6,7,8,9-hexahydro-[1,4]dioxino[2,3-g]isoquinoline-8-carbonyl]-amino}-3-[4-(2-methyl-pyridin-4-yloxy)-phenyl]-propionic acid]
